Results on nine compounds are retold here after PMC5175396, “Cytotoxicity of Plumbagin, Rapanone and 12 other naturally occurring Quinones from Kenyan Flora towards human carcinoma cells” (BMC Pharmacology & Toxicology, 2016).

Data set [1] has as its system six tested cancer cell lines (A549, SPC212, DLD-1, Caco-2, MCF-7, HepG2). Put plainly: Neutral red uptake assay, statements over the six tested cancer cell lines. The conditions noted are these: for tested cancer cell lines in which recordable IC50 values were obtained: out of six cancer cell lines; for IC50: Homo sapiens, bound valid for all six cancer cell lines, neutral red assay. The format is cell-based, human. The source says: (§1) Six human cancer cell lines and one normal cell line were used in this study. They included A549 human non-small cell lung cancer (NSCLC) cell line, obtained from the Institute for Fermentation, Osaka (IFO, Japan) and provided by Prof. Dr. Tansu Koparal (Anadolu University, Eskisehir, Turkey), SPC212 human mesothelioma cell line obtained from American Type Culture Collection (ATCC) and provided by Dr. Asuman Demiroğlu Zergeroğlu (Gebze Technical University, Kocaeli, Turkey), DLD-1 colorectal adenocarcinoma cell lines obtained from ATCC (CCL-221), Caco2 colorectal adenocarcinoma cells (ATCC, HTB-37) obtained from the ŞAP Institute of Turkey (Ankara), HepG2 hepatocarcinoma cells (ATCC, HB-8065) and MCF-7 breast adenocarcinoma cells (ATCC, HTB-22) were provided by Prof. Dr. Tansu Koparal (Anadolu University, Eskisehir, Turkey). The normal CRL2120 human skin fibroblasts were obtained from ATCC [CCD1094Sk (ATCC, CRL-2120)]. The cells were maintained as a monolayer in DMEM medium (Sigma-aldrich, Munich, Germany) medium supplemented with 10% fetal calf serum and 1% penicillin (100 U/mL)-streptomycin (100 μg/mL) in a humidified 5% CO2 atmosphere at 37 °C.
(§2) The cytotoxicity of samples was performed by NR uptake assay as previously described. This method is based on the ability of viable cells to incorporate and bind the supravital dye NR in the lysosomes. The procedure is cheaper and more sensitive than other cytotoxicity tests. […] Briefly, cells were detached by treatment with 0.25% trypsin/EDTA (Invitrogen) and an aliquot of 1 × 10^4 cells was placed in each well of a 96-well cell culture plate […]. The cells were allowed to attach overnight and subsequently treated with different concentrations of the 14 compounds. Each of the studied samples was immediately added in varying concentrations in additional 100 μL of culture medium to obtain a total volume of […]/well. After 72 h incubation in humidified 5% CO2 atmosphere at 37 °C, the medium was removed and 200 μL fresh medium containing 50 μg/mL NR was added to each well and incubation continued for an additional 3 h at 37 °C in 5% CO2 atmosphere. The dye medium was then removed and each well was then washed rapidly with 200 μL phosphate buffer saline (PBS) followed by addition of 200 μL of acetic acid-water-ethanol in water (1:49:50). The plates were kept for 15 min at room temperature to extract the dye and then shaken for a few minutes on a GFL 3012 shaker (Gesellschaft für Labortechnik mbH, Burgwedel, Germany). Absorbance was measured on ELx 808 Ultra Microplate Reader (Biotek) equipped with a 540 nm filter. Each assay was done at least three times, with three replicates each. The viability was evaluated based on a comparison with untreated cells. The IC50 values represent the sample’s concentrations required to inhibit 50% of cell proliferation and were calculated from a calibration curve by linear regression using Microsoft Excel.

The subject of data set [2] is Caco2 colorectal adenocarcinoma cells. As to the kind of experiment: Neutral red (NR) uptake cytotoxicity assay, Caco-2. The format is cell-based, human. The note with it: Homo sapiens, Caco-2; neutral red assay, 72 h incubation.
Source text: as §1, §2

Data set [3] relates to MCF-7 breast adenocarcinoma cells. Put plainly: Neutral red (NR) uptake cytotoxicity assay, MCF-7. The format is cell-based, human. The note with it: for IC50: Homo sapiens, MCF7, 72 h, neutral red assay, 72 h incubation, read-out: IC50 MCF-7; for selectivity index MCF-7: IC50 in CRL2120 normal fibroblasts divided by IC50 in MCF-7.
Source text: as §1, §2

The subject of data set [4] is HepG2 hepatocarcinoma cells. As to the kind of experiment: Neutral red (NR) uptake cytotoxicity assay, HepG2. Type of data set: cell-based, human. The conditions noted are these: for IC50: Homo sapiens, HepG2, neutral red assay, 72 h incubation, read-out: IC50 HepG2; for selectivity index HepG2: IC50 in CRL2120 normal fibroblasts divided by IC50 in HepG2.
Source text: as §1, §2

Data set [5] concerns DLD-1 colorectal adenocarcinoma cell lines. Put plainly: Neutral red (NR) uptake cytotoxicity assay, DLD-1. The note with it: for IC50: Homo sapiens, DLD-1, neutral red assay, 72 h incubation, read-out: IC50 DLD-1; for selectivity index DLD-1: IC50 in CRL2120 normal fibroblasts divided by IC50 in DLD-1. Type of data set: cell-based, human.
Source text: as §1, §2

Data set [6] relates to normal CRL2120 human skin fibroblasts. Put plainly: Neutral red (NR) uptake cytotoxicity assay, normal CRL2120 fibroblasts. The format is cell-based. The note with it: Skin fibroblast, 72 h incubation.
Source text: as §1, §2

Data set [7] concerns SPC212 human mesothelioma cell line. As to the kind of experiment: Neutral red (NR) uptake cytotoxicity assay, SPC212. Type of data set: cell-based. The conditions noted are these: for IC50: Homo sapiens, 72 h, neutral red assay, 72 h incubation, read-out: IC50 SPC212; for selectivity index SPC212: IC50 in CRL2120 normal fibroblasts divided by IC50 in SPC212.
Source text: as §1, §2

The subject of data set [8] is A549 human non-small cell lung cancer (NSCLC) cell line. As to the kind of experiment: Neutral red (NR) uptake cytotoxicity assay, A549. The format is cell-based. The note with it: for IC50: neutral red assay, 72 h incubation; for selectivity index A549: IC50 in CRL2120 normal fibroblasts divided by IC50 in A549.
Source text: as §1
as §2, with “lysosomes.” for “lysosomes. The procedure is cheaper and more sensitive than other cytotoxicity tests.”

Data set [9] can be described thus: Neutral red (NR) uptake cytotoxicity assay, Caco-2. The format is cell-based, human. The note with it: human; IC50 in CRL2120 normal fibroblasts divided by IC50 in Caco-2; read-out: selectivity index Caco-2 (converted).
Source text: as §1, §2

Some results are limits rather than exact numbers.

As to `Cc1cc(O)c2c(c1)C(=O)c1cccc(O)c1C2=O` [Compound 1, chrysophanol], the “tested cancer cell lines in which recordable IC50 values were obtained” value (“tested cancer cell lines” below) in data set [1] is on record as 2/6. In addition, the IC50 in data set [2] is > 157 µM; in [3] it was > 157 µM; in [4], > 157 µM; in data set [5], > 157 µM; in data set [6], > 157 µM; in data set [7] it was 146 ± 10.6 µM. Half-maximal inhibition in [8] (Homo sapiens, A549, 72 h) (IC50) was put at 52.2 ± 5.51 µM. Further, in data set [7], the “selectivity index SPC212” value was > 1.08. Besides, the “selectivity index A549” value in data set [8] is > 3.01.
Consider `Cc1cc(O)c2c(c1)C(=O)c1cc(O)cc(O)c1C2=O` [Compound 2, emodin], for which the IC50 was < 100 µM in [1]; 73.6 ± 3.52 µM in data set [2]; 37.6 ± 2.59 µM in data set [3]; 71.7 ± 4.52 µM in [4]; 77.3 ± 8.77 µM in data set [5]; > 148 µM in data set [6]. The IC50 stood at 99.3 ± 8.46 µM in data set [7]; 99.3 µM in data set [8] (Homo sapiens, A549, 72 h); 66.3 ± 6.19 µM in data set [8]. The “selectivity indexes (CRL2120 vs carcinoma cells), lower bound over the cancer cell lines” value in data set [1] (IC50 CRL2120 / IC50 cancer cell line) is “above 1.49”. The selectivity ratio at 72 h in data set [9] was > 2.01. The “selectivity index MCF-7” value in data set [3] is > 3.94. Also, the “selectivity index HepG2” value in data set [4] is > 2.07. In addition, the “selectivity index DLD-1” value in data set [5] was > 1.92. Further, in data set [7], the “selectivity index SPC212” value was > 1.49. The “selectivity index A549” value in data set [8] is reported as > 2.23.
On to `COC(=O)c1c(O)cc2c(c1C)C(=O)c1c(O)cc(O)cc1C2=O` [Compound 3, 3,6,8-trihydroxy-1-methylanthraquinone-2-carboxylic acid methyl ester], for which the IC50 in [1] is > 120 µM; in [2], > 122 µM; in data set [3], > 122 µM; in data set [4], > 122 µM; in data set [5], > 122 µM; in data set [6], > 122 µM. The IC50 in [7] is > 122 µM; in data set [8] (Homo sapiens, A549, 72 h) it was > 122 µM.
Regarding `CCC1=C(O)C(=O)C=C(O)C1=O` [Compound 5, 2,5-dihydroxy-3-ethyl-2,5-cyclohexadiene-1,4-dione], the IC50 in data set [1] was > 120 µM; in data set [2], > 238 µM; in data set [3] it was > 238 µM; in [4], > 238 µM; in [5] it was > 238 µM; in [6], 95.5 ± 5.64 µM. The IC50 in [7] was > 238 µM; in data set [8] (Homo sapiens, A549, 72 h), > 238 µM.
`CCCC1=C(O)C(=O)C=C(O)C1=O` [Compound 6, 2,5-dihydroxy-3-propyl-2,5-cyclohexadiene-1,4-dione]: the “tested cancer cell lines” value in [1] was 1/6. In addition, the IC50 in data set [2] was > 222 µM; in data set [3] it was 162 ± 11.4 µM; in data set [4] it was > 222 µM; in data set [5], > 222 µM; in data set [6] it was > 222 µM; in data set [7] it was > 222 µM. The IC50 in [8] (Homo sapiens, A549, 72 h) is > 222 µM.
On to `CCCCC1=C(O)C(=O)C=C(O)C1=O` [Compound 7, 2,5-dihydroxy-3-butyl-2,5-cyclohexadiene-1,4-dione], for which the “tested cancer cell lines” value in [1] is given as 5/6. Further, the IC50 in [2] is 89.7 ± 8.8 µM; in data set [3], 64.6 ± 13.4 µM; in [4], 176 ± 28.5 µM; in data set [5] it was > 204 µM; in data set [6], > 204 µM; in data set [7], 87.9 ± 5.66 µM. In data set [8] (Homo sapiens, A549, 72 h), the midpoint of inhibition, the IC50, lay at 68.6 ± 7.55 µM. Further, the selectivity ratio at 72 h in data set [9] is > 2.27. In addition, the “selectivity index MCF-7” value in data set [3] was > 3.16. For the same compound, the “selectivity index HepG2” value in data set [4] is listed as > 1.16. Moreover, the “selectivity index SPC212” value in data set [7] was > 2.32. In addition, the “selectivity index A549” value in data set [8] is > 2.97.
`CCCCCCCC1=C(O)C(=O)C=C(O)C1=O` [Compound 8, 2,5-dihydroxy-3-heptyl-2,5-cyclohexadiene-1,4-dione]: the “tested cancer cell lines” value in data set [1] was 5/6. For the same compound, the IC50 in data set [2] was 63.9 ± 5.97 µM; in data set [3] it was 38.8 ± 3.33 µM; in data set [4] it was 94.2 ± 2.7 µM; in [5], > 168 µM; in data set [6], 117 ± 1.22 µM; in [7], < 10 µM. Further, the half-inhibitory concentration (IC50) in data set [8] (Homo sapiens, A549, 72 h) amounted to 108 ± 17.9 µM. The selectivity ratio at 72 h in data set [9] is 2.27. In addition, in data set [3], the “selectivity index MCF-7” value stood at 3.16. Also, the “selectivity index HepG2” value in data set [4] was 1.16.
`CCCCC=CCCCCCCCCCCCCCC1=C(OC)C(=O)C=C(OC)C1=O` [Compound 12, 2,5 dimethoxy-6-(14-nonadecenyl)-1,4-benzoquinone]: the concentration for half-maximal inhibition (IC50) is > 120 µM in data set [1]; > 129 µM in [2]; > 129 µM in data set [3]; > 129 µM in data set [4]; > 129 µM in data set [5]; > 129 µM in [6]. In addition, the IC50 was > 129 µM in data set [7] and > 129 µM in data set [8] (Homo sapiens, A549, 72 h).
With `COC1=CC(=O)C(O)=C(CCCCCCCC=CCCCCCCCC2=C(O)C(=O)C(C)=C(O)C2=O)C1=O` [Compound 14, ardisiaquinone B], the “tested cancer cell lines” value in data set [1] is listed as 4/6. Besides, the IC50 in data set [2] is > 123 µM; in [3], > 123 µM; in [4], 115 ± 4.29 µM; in [5] it was 114 ± 3.68 µM; in data set [6] it was 71.3 ± 5.23 µM; in data set [7] it was 3.14 ± 0.78 µM. Besides, the IC50 in [8] (Homo sapiens, A549, 72 h) was 21.7 ± 1.5 µM. Further, the “selectivity index HepG2” value in data set [4] was 0.62. In data set [5], the “selectivity index DLD-1” value was 0.62. Also, the “selectivity index SPC212” value in data set [7] came out at 22.72. The “selectivity index A549” value in data set [8] amounted to 3.29.
